In the experiment the test system is MCF-7 breast cancer cells. The experiment is described as follows: MTT cell growth inhibition assay in MCF-7 breast cancer cells. The format is cell-based. The note with it: 72 hours post treatment, concentrations with respect to paclitaxel content. On the procedure: The antiproliferative capabilities of PTX-AuNPs from Example 1 were first investigated in vitro. To this end, cellular assays were performed to compare the ability of the PTX-AuNPs to inhibit cell growth relative to the parent drug. Briefly, MCF-7 breast cancer cells were treated over a range of concentrations (based on equivalent PTX content) for all samples and relative cell survival was measured 72 hours post treatment following the MTT protocol. Additionally, the paclitaxel pyruvate compound was also analyzed, as it represented the agent released from the gold surface upon degradation of the hydrazone linker. MCF-7 cells were plated in 6 well plates and allowed to proliferate until approximately 80-90% confluent. Once optimal confluency was reached, increasing concentrations of PTX-AuNPs were added to each well in order to ensure sufficient uptake for imaging (up to 100 μg/mL). Following 12 hours of incubation with PTX-AuNPs, the cells were fixed with a solution of gluteraldehyde and imaged by transmission electron microscopy (TEM). MCF-7 breast cancer cells were plated in 96-well plates at a concentration of 4,000 cells/well (100 μL/well) and allowed to attach for 24 hours. […] Upon agitating the plates for 2 minutes, absorbance values were recorded using a plate reader (Gene Mate, BioTek) equipped with a 570 nm filter.

With `CC(=O)OC1C(=O)C2(C)C(O)CC3OCC3(OC(C)=O)C2C(OC(=O)c2ccccc2)C2(O)CC(OC(=O)C(OC(=O)C(C)=O)C(NC(=O)c3ccccc3)c3ccccc3)C(C)=C1C2(C)C` (centres unmarked) [paclitaxel pyruvate, Paclitaxel 2′ Pyruvate], half-maximal inhibition (MCF-7 cells) (IC50) was put at 9 nM.
Regarding `CC(=O)O[C@H]1C(=O)[C@@]2(C)[C@H]([C@H](OC(=O)c3ccccc3)[C@]3(O)C[C@H](OC(=O)[C@H](O)[C@@H](NC(=O)c4ccccc4)c4ccccc4)C(C)=C1C3(C)C)[C@]1(OC(C)=O)CO[C@@H]1C[C@@H]2O` [paclitaxel], the IC50 (in general, the concentration that gives 50% inhibition) (Homo sapiens, MCF7, MCF-7 cells) is roughly 4 nM.

For the origin of these results see patent publication US9138418B2, “Therapeutic compositions and methods for delivery of active agents cleavably linked to nanoparticles” (priority 2009, dated 2015).
